Measurements as given in patent US20070093392A1 (priority 2005, published 2007).

Test system: gerbils
Conditions: in vivo

## COc1cc(CNC(=O)CCCC/C=C/C(C)C)ccc1O [capsaicin]
  Rodent repellent effect, overall: very effective rodent repellent
